Experimental data taken from ChEMBL document CHEMBL3430912, “GSK Tres Cantos Anti-Kinetoplastid Screening (TCAKS) Data”.

Legend:
[1] = tested on: Leishmania donovani; assay: (§1) GSK_TCAKS: pIC50 Leishmania donovani Imaging: THP-1 Host Macrophages. Assay plates (384-well) were prepared by adding 250nL of compound to each well. For single shot assay, the final compound concentration was 5 uM. […] Automated image analysis was performed with a script developed on Acapella High Content Imaging and Analysis Software (PerkinElmer). Output: THP-1 cell count were reported for each well.; type: functional, organism-based, Homo sapiens
[2] = tested on: Trypanosoma cruzi; assay: GSK_TCAKS: pIC50 Trypanosoma cruzi viability assay using beta-GAL activity. This assay was run at single shot at 5uM compound concentration per well. The biological reagents consisted of NIH-3T3 host cells and trypomastigotes parasitic cells; both cell types were set to a 3.3 * 10^5 cells/mL dilution in assay DMEM by means of a CASY cell counter device using a 60um capillary. 6 uL of the mixture were dispensed per well (about 1 * 10^3 host-cells and 1 * 10^3 parasites) with a Multidrop Combi dispenser. […] In all wells, the percentage of DMSO never exceeded 0.5%. Plates incubated for four days at 37C, 5% CO2. The substrate used for the assay fluorescence intensity (FLINT) readout was resorufin-beta-D-galactopiranoside (Sigma-Aldrich) at 5uM per well. It was diluted in PBS supplemented with the soft detergent Igepal (Fluka).; type: functional, organism-based, Mus musculus; conditions: Tulahuen, NIH3T3
[3] = tested on: Trypanosoma brucei brucei; assay: GSK_TCAKS: pIC50 Trypanosoma brucei viability assay using luminiscence. Assay plates (1536-well) were prepared. T. brucei cultures were harvested and counted in a CASY cell counter. A parasite suspension was prepared at a final concentration of 5 * 10^4 cells/mL in complete HMI9 medium and 6uL was dispensed to all wells containing compounds using a Multidrop Combi dispenser. 6uL of HMI9 media with 0.4% DMSO were dispensed to control columns. Plates were incubated for 24 h at 37C, 5% CO2 then tempered for 10 min at room temperature. ATP content was quantified by adding 4 uL of CellTiter-Glo Reagent (Promega) according to the manufacturer's instructions. Luminescence was measured using a ViewLux.; type: functional, organism-based; conditions: Lister 427, CASY
[4] = tested on: Trypanosoma cruzi; assay: (§2) GSK_TCAKS: pIC50 H2C9 Imaging: H9c2 Host Cardiomyocytes. […] Cells were then washed once with PBS before infection. T. cruzi trypomastigotes, collected at days 5 to 8 after infection from LLC-MK2 parasite infected cultures, were allowed to swim out for 4h at 37C from a centrifuged pellet (2,500 rpm/10 min/room temperature). Trypomastigotes were then collected and counted in a CASY Cell Counter. Trypomastigotes, in supplemented DMEM, were added to H9c2 cultures in a multiplicity of infection of 1 and incubated for 18 h. Cells were washed once with PBS before incubation of the infected H9c2 monolayer with trypsin (Life-Technologies) to detach cells from the flask. Cells were counted in a CASY Cell Counter using a 150 um capillary and their density set at 5 * 10^4 cells per mL in supplemented assay DMEM. Infected H9c2 were dispensed into 384-well poly-lysine coated assay plates at 50uL per well using a Multidrop Combi dispenser. After seeding them, the plates were incubated at 37C, 5% CO2 for 72h. Cultures were then fixed and stained by addition of 50 uL of a solution containing 8% formaldehyde and 4 uM DRAQ5 DNA dye (BioStatus, UK) per well. […] Five images were collected per well for reliable statistical analysis. Automated image analysis was performed with a script developed on Acapella High Content Imaging and Analysis Software (PerkinElmer). Output: Number of H9c2 Host Cardiomyocytes nuclei to determine drug-related cytotoxicity.; type: functional, organism-based, Rattus norvegicus; conditions: H9c2, 4 h
[5] = GSK_TCAKS: pIC50 HepG2 human cell line viability assay using luminiscence. […] Seeding density was checked to ensure that new mono-layers were not more than 50% confluent at the time of harvesting. Cell suspension was added to 500 mL of the same medium at a final density of 1.2 * 10^5 cells/mL. This cell suspension was dispensed (25 uL, 3000 cells per well) into 384-well clear-bottom plates using a Multidrop Combi dispenser. Prior to addition of the cell suspension, the screening compounds (250 nL) were pre-dispensed into the plates with an Echo liquid handler. Plates were incubated for 48 h at 37C, 5% CO2. After incubation, plates equilibrated at room temperature for 30 min before proceeding to develop the luminescent signal. The signal developer, CellTiter-Glo Reagent, was allowed to equilibrate at room temperature for 30 min and added to the plates (25uL per well) using a Multidrop Combi dispenser. Plates were left for 10 min at room temperature for stabilization and then read using a ViewLux.; type: toxicity, cell-based
[6] = tested on: Leishmania donovani; assay: as §1, with “Amastigotes/Macrophages.” for “THP-1 Host Macrophages.”, “Average number of amastigotes per macrophage” for “THP-1”, “cell” for “cell count”; type: functional, organism-based, Homo sapiens; conditions: THP-1
[7] = tested on: Trypanosoma cruzi; assay: as §2, with “Trypanosoma cruzi” for “H2C9”, “Infected Cells.” for “H9c2 Host Cardiomyocytes.”, “percentage” for “Number”, “infected cells per well as a second infection marker.” for “H9c2 Host Cardiomyocytes nuclei to determine drug-related cytotoxicity.”; type: functional, organism-based, Rattus norvegicus; conditions: H9c2, 4 h
[8] = tested on: Leishmania donovani; assay: GSK_TCAKS: pIC50 Leishmania donovani viability assay using fluorescence intensity. Assay plates (1536-well) were prepared by adding 30nL per well of compound. For single shot assay, the final compound concentration was 5uM. […] Briefly, eGFP LdBOB axenic amastigotes were harvested, fixed and counted in a CASY cell counter (Roche-Applied Science). A final concentration of 1.5 * 10^5 cells per well were prepared in amastigote media containing 500 U/mL penicillin/streptomycin (Invitrogen) and 6uL was dispensed to each experimental well using a Multidrop Combi dispenser (Thermo Scientific). 6uL of assay media was dispensed to control columns used as reference for 100% compound response. Following incubation for 72 h at 37C, 5% CO2, 2 uL of resazurin was added to each well at a final concentration of 0.5 mM in phosphate buffered saline (PBS) with IGEPAL (Sigma-Aldrich), 0.05% (v/v).; type: functional, organism-based
[9] = tested on: Leishmania donovani; assay: as §1, with “Infected” for “THP-1 Host”, “Percent of infected macrophage cells” for “THP-1 cell count”; type: functional, organism-based, Homo sapiens; conditions: THP-1
[10] = target: Sterol 14-alpha demethylase (Trypanosoma cruzi (strain CL Brener), UniProt Q7Z1V1); assay: GSK_TCAKS: pIC50 CYP51 from Trypanosoma cruzi.; type: functional
[11] = tested on: Trypanosoma cruzi; assay: as §2, with “Trypanosoma cruzi” for “H2C9”, “Amastigotes/Cell.” for “H9c2 Host Cardiomyocytes.”, “number” for “Number”, “amastigotes per cell as infection level measurement.” for “H9c2 Host Cardiomyocytes nuclei to determine drug-related cytotoxicity.”; type: functional, organism-based, Rattus norvegicus; conditions: H9c2, 4 h
[12] = tested on: Trypanosoma brucei brucei; assay: GSK_TCAKS: pIC50 Trypanosoma brucei viability assay using fluorescence intensity. Assay plates (1536-well) were prepared by dispensing 25nL of compound solution per well using an Echo acoustic dispenser (Labcyte).; type: functional, organism-based; conditions: Lister 427, 2 h

Sterol 14-alpha demethylase, sequence (Q7Z1V1 whole entry): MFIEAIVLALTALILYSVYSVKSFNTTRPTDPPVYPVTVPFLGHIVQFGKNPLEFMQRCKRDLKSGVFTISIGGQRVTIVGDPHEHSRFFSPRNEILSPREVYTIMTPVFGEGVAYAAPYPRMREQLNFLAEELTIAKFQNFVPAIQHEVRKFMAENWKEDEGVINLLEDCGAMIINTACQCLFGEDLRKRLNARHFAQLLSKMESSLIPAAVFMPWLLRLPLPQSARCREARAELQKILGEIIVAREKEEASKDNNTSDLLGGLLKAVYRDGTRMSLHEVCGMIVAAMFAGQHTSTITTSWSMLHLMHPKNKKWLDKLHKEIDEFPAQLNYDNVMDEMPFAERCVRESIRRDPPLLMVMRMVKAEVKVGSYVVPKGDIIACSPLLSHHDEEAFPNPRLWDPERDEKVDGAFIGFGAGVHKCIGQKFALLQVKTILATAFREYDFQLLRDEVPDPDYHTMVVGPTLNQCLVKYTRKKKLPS

Row | Structure (SMILES) | IC50 [1] | IC50 [2] | IC50 [3] | IC50 [4] | IC50 at 48 h [5] | IC50 [6] | IC50 [7] | IC50 [8] | IC50 [9] | IC50 [10] | IC50 [11] | IC50 [12]
1 | NCc1csc(Nc2cc(Oc3ccccc3)ncn2)n1 | > 50.1 µM | 31.6 µM | 0.794 µM | > 50.1 µM | > 100 µM | 25.1 µM | 25.1 µM | > 50.1 µM | 25.1 µM | 0.316 µM | 31.6 µM | 0.631 µM
2 | Cc1cnc(Nc2cc(Cc3ccccc3)nc(N[C@H]3CC[C@H](O)CC3)n2)s1 | 0.0251 µM | 0.126 µM | 0.0398 µM | 0.0316 µM | 25.1 µM | 0.0316 µM | 0.126 µM | 0.794 µM | 0.0398 µM | > 100 µM | 0.0501 µM | 0.0251 µM
3 | CC(=O)Nc1cccc(Nc2ncnc3[nH]cnc23)c1 | 10 µM | > 50.1 µM | 0.398 µM | > 50.1 µM | > 100 µM | 39.8 µM | 39.8 µM | > 50.1 µM | > 50.1 µM | > 100 µM | 25.1 µM | 0.126 µM
4 | COc1cccc(-c2c(C)nn(-c3nc(N)nc(-c4ccccn4)n3)c2N)c1 | > 50.1 µM | 2.51 µM | > 39.8 µM | > 50.1 µM | > 100 µM | 1.58 µM | 2 µM | 5.01 µM | 2 µM | > 100 µM | 0.501 µM | > 39.8 µM
5 | CC(C)c1nn(-c2nc(N)nc(-c3ccccn3)n2)c(N)c1C1CCCCC1 | 5.01 µM | 2 µM | 7.94 µM | 3.16 µM | 20 µM | 0.794 µM | 1.26 µM | 7.94 µM | 1 µM | 3.16 µM | 1.26 µM | 7.94 µM
6 | Cc1nn(-c2nc(N)nc(-c3ccccn3)n2)c(C)c1Cc1ccccc1 | > 50.1 µM | 2.51 µM | 6.31 µM | 20 µM | > 100 µM | 2.51 µM | 3.16 µM | 5.01 µM | 3.16 µM | 63.1 µM | 2 µM | > 39.8 µM
7 | Cc1occc1C(=O)Nc1ccccc1C(=O)Nc1nccs1 | > 50.1 µM | > 50.1 µM | 0.501 µM | > 50.1 µM | > 100 µM | > 50.1 µM | > 50.1 µM | > 50.1 µM | > 50.1 µM | > 100 µM | 31.6 µM | 0.398 µM
8 | COc1cccc(CN(C)Cc2nc(N)c3c(C)c(C)sc3n2)c1 | 31.6 µM | 6.31 µM | 3.98 µM | > 50.1 µM | 39.8 µM | 3.16 µM | 15.8 µM | 31.6 µM | 5.01 µM | > 100 µM | 15.8 µM | 5.01 µM
9 | CC(C)Nc1nc(Cl)nc2ccccc12 | 20 µM | 3.98 µM | 12.6 µM | 7.94 µM | 39.8 µM | 1.26 µM | 10 µM | 20 µM | 2.51 µM | > 100 µM | 3.98 µM | 5.01 µM
10 | Cc1cc2nc(CN(C)Cc3ncccc3C)[nH]c2cc1C | 7.94 µM | 0.501 µM | 0.631 µM | 12.6 µM | 39.8 µM | 0.501 µM | 1 µM | 5.01 µM | 0.631 µM | 79.4 µM | 0.501 µM | 0.631 µM
11 | CC(C)(C)CC(=O)NCc1noc(COc2ccccc2)n1 | > 50.1 µM | 2.82 µM | 0.794 µM | > 50.1 µM | > 100 µM | > 50.1 µM | 2.51 µM | > 50.1 µM | > 50.1 µM | 50.1 µM | 2.51 µM | 0.631 µM
12 | O=C(Cn1cnc2c(-c3ccccc3)csc2c1=O)N1CCCCC1 | > 50.1 µM | 3.55 µM | 1 µM | > 50.1 µM | > 100 µM | > 50.1 µM | 3.98 µM | > 50.1 µM | > 50.1 µM | 39.8 µM | 3.16 µM | 0.794 µM
13 | CN(CCOc1ccc(Cl)cc1)Cc1nc(N)nc(N(C)C)n1 | > 50.1 µM | 5.01 µM | 15.8 µM | > 50.1 µM | > 100 µM | 5.01 µM | 10 µM | 15.8 µM | 7.94 µM | 31.6 µM | 7.94 µM | 25.1 µM
14 | Cc1cc(=O)n2nc(Oc3ccc(C#N)cc3Cl)sc2n1 | 31.6 µM | 15.8 µM | 0.316 µM | 31.6 µM | 39.8 µM | 31.6 µM | 31.6 µM | 12.6 µM | 31.6 µM | > 100 µM | 25.1 µM | 0.631 µM
15 | O=C(c1ccc(O)c(Cl)c1)N1CCN(c2cnccn2)CC1 | > 50.1 µM | > 50.1 µM | > 39.8 µM | > 50.1 µM | > 100 µM | 3.16 µM | > 50.1 µM | 0.316 µM | 5.01 µM | > 100 µM | 10 µM | > 39.8 µM
16 | O=C1CN(Cc2ccco2)C2CS(=O)(=O)CC2N1c1ccc(Cl)cc1 (stereo unspecified) | > 50.1 µM | > 50.1 µM | 0.251 µM | > 50.1 µM | > 100 µM | > 50.1 µM | > 50.1 µM | > 50.1 µM | > 50.1 µM | > 100 µM | > 50.1 µM | 0.316 µM
17 | Cc1nc(-c2ccncc2)ncc1C(C)NC(=O)c1ccc(Cl)s1 (stereo unspecified) | > 50.1 µM | 25.1 µM | 1 µM | > 50.1 µM | > 100 µM | > 50.1 µM | 31.6 µM | > 50.1 µM | > 50.1 µM | 0.794 µM | 20 µM | 1 µM
18 | Cn1nc(C(=O)N2CCc3ccccc32)c2c1CCS(=O)(=O)C2 | > 50.1 µM | 7.94 µM | 6.31 µM | > 50.1 µM | > 100 µM | 1.58 µM | 12.6 µM | 3.98 µM | 3.98 µM | > 100 µM | 7.94 µM | 3.98 µM
